Read-outs that look alike come from different tables or passages of the source.
Experiments:
MDR1 [1] = format: cell-based, human
Method: The times of drug exposure are indicated.
(§1) (Commercially-available kits (for example, from GIBCO/BRL, Gaithersburg, Md.) can be advantageously modified for making cDNA using random hexamers.) PCR is then performed using the following primers: […]
Next, it was tested whether drug-induced MDR1 expression was maintained after the cytotoxic treatment. […] At different time points, MDR1 expression in the surviving cells was analyzed by dye efflux and immunofluorescence labeling with UIC2 (FIG. 3c) or by cDNA-PCR (FIG. 4e).

P-glycoprotein [2] = biological target: T1, P-glycoprotein (Homo sapiens, UniProt P08183); test: Dye efflux (Rh123 or DiOC2 (3)) assay of drug-treated K562 cells
T1 sequence (P08183 whole entry): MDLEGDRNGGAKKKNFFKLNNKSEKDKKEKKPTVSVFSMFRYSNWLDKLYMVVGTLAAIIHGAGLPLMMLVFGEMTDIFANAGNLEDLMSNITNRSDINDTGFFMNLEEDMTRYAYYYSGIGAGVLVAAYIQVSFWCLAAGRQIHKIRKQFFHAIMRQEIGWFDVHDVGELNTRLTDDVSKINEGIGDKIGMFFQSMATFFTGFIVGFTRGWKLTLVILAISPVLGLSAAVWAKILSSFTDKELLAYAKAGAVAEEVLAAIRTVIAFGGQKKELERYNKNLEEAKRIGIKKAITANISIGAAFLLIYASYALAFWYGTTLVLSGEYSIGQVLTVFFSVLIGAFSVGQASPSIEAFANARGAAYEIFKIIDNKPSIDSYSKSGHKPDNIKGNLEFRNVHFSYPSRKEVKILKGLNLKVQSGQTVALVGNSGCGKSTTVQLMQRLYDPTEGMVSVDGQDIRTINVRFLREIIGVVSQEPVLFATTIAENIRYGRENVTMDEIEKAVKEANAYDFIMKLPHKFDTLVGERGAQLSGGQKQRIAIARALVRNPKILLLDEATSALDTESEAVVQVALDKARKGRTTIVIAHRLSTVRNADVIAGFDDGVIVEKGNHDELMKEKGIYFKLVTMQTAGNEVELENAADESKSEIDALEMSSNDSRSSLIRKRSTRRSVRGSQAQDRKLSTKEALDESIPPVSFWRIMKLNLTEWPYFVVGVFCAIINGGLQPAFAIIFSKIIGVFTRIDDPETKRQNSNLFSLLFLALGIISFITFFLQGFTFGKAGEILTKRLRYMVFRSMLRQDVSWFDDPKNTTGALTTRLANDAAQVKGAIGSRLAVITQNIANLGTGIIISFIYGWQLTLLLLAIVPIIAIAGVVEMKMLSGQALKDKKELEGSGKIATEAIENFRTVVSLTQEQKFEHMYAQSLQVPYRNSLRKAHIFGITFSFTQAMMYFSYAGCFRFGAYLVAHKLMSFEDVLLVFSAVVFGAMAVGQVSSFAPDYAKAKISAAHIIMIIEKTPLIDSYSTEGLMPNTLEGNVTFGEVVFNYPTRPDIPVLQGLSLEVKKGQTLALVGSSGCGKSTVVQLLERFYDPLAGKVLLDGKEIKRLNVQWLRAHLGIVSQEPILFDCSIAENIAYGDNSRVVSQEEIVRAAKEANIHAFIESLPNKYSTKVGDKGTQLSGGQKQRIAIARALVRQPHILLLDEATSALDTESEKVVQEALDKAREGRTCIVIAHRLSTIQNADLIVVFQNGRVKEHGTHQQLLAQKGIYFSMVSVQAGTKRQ
Method: (§2) Top panel: Rh123 efflux from untreated cells (-) and from cells treated with 50 μM Ara-C (ARA) for 12 hours or with 10 μAra-C for 2 to 3 days.

MRP = test: Inhibition of MRP expression in H-9 cells; format: cell-based, human; conditions: 25 μM Ara-C, data not shown
Method: PCR was performed using the following primers: […]
(where β2 M represents β2 microglobulin). PCR was performed for β2 M experiments under a regime consisting of 1 cycle comprising denaturation at 94° C. for 3 minutes, primer annealing at 60° C. for 30 seconds, and primer extension at 72° C. for 1 minute, followed by 19 cycles comprising denaturation at 94° C. for 30 seconds, primer annealing at 60° C. for 30 seconds, and primer extension at 72° C. for 1 minute, followed by a final cycle comprising denaturation at 94° C. for 30 seconds, primer annealing at 60° C. for 30 seconds, and primer extension at 72° C. for 5 minutes.

[3] = clinical trials; cited from earlier work
PKC = conditions: cited from earlier work; for IC50: Hidaka et al., 1984
MDR1 [4] = test: Inhibition of cytotoxic drug (Ara-C) induced MDR1 expression by protein kinase inhibitors; format: cell-based, human
Method: FIG. 5. Effect of protein kinase inhibitors on MDR1 mRNA induction by cytotoxic drugs in H9 cells. […]
as §1
(where β2 M represents β2 microglobulin). PCR was performed for β2 M experiments under a regime consisting of 1 cycle comprising denaturation at 94° C. for 3 minutes, primer annealing at 60° C. for 30 seconds, and primer extension at 72° C. for 1 minute, followed by 19 cycles comprising denaturation at 94° C. for 30 seconds, primer annealing at 60° C. for 30 seconds, and primer extension at 72° C. for 1 minute, followed by a final cycle comprising denaturation at 94° C. for 30 seconds, primer annealing at 60° C. for 30 seconds, and primer extension at 72° C. for 5 minutes. MDR1 cDNA sequences were amplified using the identical protocol as for β2 M, but extending the amplification from 19 cycles to 25 cycles. In addition, the cDNA-PCR amplification protocol contained the following modifications: (i) Taq DNA polymerase was added to the PCR mixtures after initial heating of the samples to 94° C. (ii) The yield of the β2 -microglobulin-specific band, obtained after 22-28 cycles of PCR, was used as the primary criterion for equalizing the starting amounts of the cDNA templates in different preparations, in order to account for differential RNA degradation in cells subjected to different types of treatment. […] PCR products were detected by autoradiography.
Cells were plated in 6-well Falcon tissue culture plates at 3,300 cells per well, and incubated in the appropriate concentrations of drugs. Each of the protein kinase inhibitors to be tested were added at their appropriate final concentrations 45 minutes prior to MDR1 induction by the addition of Ara-C or TPA, with the exception of herbimycin A, which was added 12 hours prior to Ara-C or TPA, and tyrphostins A25 and B46, which were each added 16 hours prior to MDR1 induction by the addition of Ara-C or TPA. Cells were incubated overnight (TPA) or for 10 hours (Ara-C) at 37° C. under an atmosphere of 5% CO2 after the addition of the MDR1 inducing agents before harvesting for cDNA-PCR analysis.
In addition to these conditions, the analysis of certain drugs imposed added requirements. For experiments using calphostin C, cells were incubated under direct white light illumination. For experiments using D,L-threo-sphingosine, the cell culture medium was pre-treated with the appropriate concentration of the drug for one hour at 37° C. with continuous gentle mixing. After this pre-treatment, cells were resuspended in media supplemented with drug and incubated for 45 minutes as described above.
cDNA-PCR analyses on each culture treated with drugs, or in control cultures incubated in the absence or presence of Ara-C or TPA alone, were performed as described in Section 6.1.3 above.
To further evaluate the capacity of protein kinase inhibitors to suppress MDR1 induction by cytotoxic drugs and PKC agonists, H-9 human T cell leukemia cells were used in cDNA-PCR assays to examine induced MDR1 mRNA expression levels in the presence of such protein kinase inhibitors.

protein kinase A = conditions: Hidaka et al., 1984; cited from earlier work
MDR1 [5] = conditions: cited from earlier work
P-glycoprotein [6] = biological target: T1, P-glycoprotein
Method: as §2

tumor = conditions: nude mice, i.p. 20 mg/kg; cited from earlier work

Nc1ccn([C@@H]2O[C@H](CO)[C@@H](O)[C@@H]2O)c(=O)n1 [Ara-C, 1-β-D-arabinofuranosylcytosine]
maintenance of MDR1 expression after removal of the drug (MDR1 [1]; Ara-C treated K562 population): up to 11 weeks | MDR1 mRNA expression (MDR1 [1]; EJ bladder carcinoma, 10 μM, 4 days): activated MDR1 mRNA expression | MDR1 mRNA expression (MDR1 [1]; H9 T-cell leukemia): activated MDR1 mRNA expression | maintenance of MDR1 expression after removal of the drug (MDR1 [1]; K562 cells treated 3-5 days, then grown in absence of drug): least several weeks | MDR1 mRNA expression relative to β2 -glycoprotein (MDR1 [1]; K562 cells, Ara-C): dose-dependent increase in MDR1 mRNA expression | MDR1 mRNA expression (MDR1 [1]; KB-3-1 epidermoid carcinoma, 2 days): activated MDR1 mRNA expression | P-glycoprotein expression (Rh123 accumulation or UIC2 immunoreactivity) (MDR1 [1]; KG1 leukemia cells, Ara-C (10 μM, 1.5 days)): increased P-glycoprotein expression | MDR1 induction, mRNA and protein levels (MDR1 [1]; human leukemia and solid-tumor derived cell lines, subpopulation of treated cells): MDR1 induction, both at the mRNA and at the protein levels, was observed | subpopulation of live cells showing efflux of Rh123 (P-glycoprotein [2]; Ara-C 12-72 hours): 3-17% | effect on MRP expression (MRP): slight decrease in MRP expression

CCCCCCCCCCCCCCCCSCC(COC)COP(=O)([O-])OCC[N+](C)(C)C (stereo not drawn) [BM41440]
MTD, oral [3]: 5 mg/kg body weight

CC1CNCCN1S(=O)(=O)c1cccc2cnccc12 (stereo not drawn) [H7]
IC50 (PKC): 6 µM | prevention of MDR1 induction by chemotherapeutic drugs (MDR1 [4]; 50 μM): prevent MDR1 induction | IC50 (protein kinase A): 3 µM

N=C(N)NCCNS(=O)(=O)c1cccc2cnccc12 [HA1004]
IC50 (PKC): 40 µM | inhibition of MDR1 induction by Ara-C (MDR1 [4]; H9 cells, 60 μM HA1004, 50 μM Ara-C 22 hr): no significant inhibition | prevention of MDR1 induction (MDR1 [4]; protein kinase inhibitor inactive against PKC): totally ineffective in preventing MDR1 induction | IC50 (protein kinase A): 2.3 µM

O=[As][O-].[Na+] [arsenite]
MDR1 expression (MDR1 [5]): increased

COc1cccc2c1C(=O)c1c(O)c3c(c(O)c1C2=O)C[C@@](O)(C(C)=O)C[C@@H]3O[C@H]1C[C@H](N)[C@H](O)[C@H](C)O1 [daunorubicin]
treated cells showing efflux of Rh123 or DiOC2 (3) (P-glycoprotein [6]): 3-10% | MDR1 induction, mRNA and protein levels (MDR1 [1]): MDR1 induction, both at the mRNA and at the protein levels, was observed | MDR1 mRNA induction (MDR1 [1]): induce MDR1 mRNA expression

NC(=O)NO [hydroxyurea]
MDR1 induction, mRNA and protein levels (MDR1 [1]): MDR1 induction, both at the mRNA and at the protein levels, was observed | MDR1 mRNA induction (MDR1 [1]): induce MDR1 mRNA expression | treated cells showing efflux of Rh123 or DiOC2 (3) (P-glycoprotein [2]): 3-10%

CCCCCCCCCCCCCCCCSCC(COC)COP(=O)([O-])OCC[N+](C)(C)C (stereo not drawn) [ilmofosine]
MTD, oral [3]: 200 mg/day

O=c1c(O)c(-c2ccc(O)c(O)c2)oc2cc(O)cc(O)c12 [quercetin]
inhibition of protein kinase C (PKC; literature): inhibition of PKC activity | potentiation of anti-tumor effect of cisplatin (tumor): potentiate the anti-tumor effect of cisplatin | effect on arsenite-induced increase in MDR1 expression (MDR1 [5]): can prevent an increase in MDR1 expression

CC[C@]1(O)C[C@@H]2CN(CCc3c([nH]c4ccccc34)[C@@](C(=O)OC)(c3cc4c(cc3OC)N(C)[C@H]3[C@@](O)(C(=O)OC)[C@H](OC(C)=O)[C@]5(CC)C=CCN6CC[C@]43[C@@H]65)C2)C1 [vinblastine]
treated cells showing efflux of Rh123 or DiOC2 (3) (P-glycoprotein [6]): 3-10% | MDR1 induction, mRNA and protein levels (MDR1 [1]): MDR1 induction, both at the mRNA and at the protein levels, was observed | MDR1 mRNA expression (MDR1 [1]): MDR1 mRNA expression was induced | MDR1 mRNA induction (MDR1 [1]): induce MDR1 mRNA expression
